Measurements: PubChem BioAssay AID1963832 (Molecular Pharmacology Branch, DTP, NCI, 2024)

Test system: 885724-159-R-J1-PDC complex spheroid viability
Test: Anticancer human tumor 885724-159-R-J1-PDC patient-derived pancreatic adenocarcinoma cell line growth inhibition [POLQ]
Conditions: for IC50: curve of first compound; for viability, T/C: stronger effect = lower value
Outline: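 Growth inhibition in 3D: complex spheroids (tumor PDC, HUVEC, MSC) treated with POLQ inhibitor combinations; where Cmax unknown, highest tested concentration 10 microM, except SN-38 at 1 microM.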

[1] = second compound 0.0316 µM, first compound 0.0316 µM
[2] = second compound 0.0316 µM, first compound 0.1 µM
[3] = second compound 0.0316 µM, first compound 0.316 µM
[4] = second compound 0.0316 µM, first compound 1 µM
[5] = second compound 0.0316 µM, first compound 3.16 µM
[6] = second compound 0.0316 µM, first compound 10 µM
[7] = second compound 0.1 µM, first compound 0.0316 µM
[8] = second compound 0.1 µM, first compound 0.1 µM
[9] = second compound 0.1 µM, first compound 0.316 µM
[10] = second compound 0.1 µM, first compound 1 µM
[11] = second compound 0.1 µM, first compound 3.16 µM
[12] = second compound 0.1 µM, first compound 10 µM
[13] = second compound 0.316 µM, first compound 0.0316 µM
[14] = second compound 0.316 µM, first compound 0.1 µM
[15] = second compound 0.316 µM, first compound 0.316 µM
[16] = second compound 0.316 µM, first compound 1 µM
[17] = second compound 0.316 µM, first compound 3.16 µM
[18] = second compound 0.316 µM, first compound 10 µM
[19] = second compound 1 µM, first compound 0.0316 µM
[20] = second compound 1 µM, first compound 0.1 µM
[21] = second compound 1 µM, first compound 0.316 µM
[22] = second compound 1 µM, first compound 1 µM
[23] = second compound 1 µM, first compound 3.16 µM
[24] = second compound 1 µM, first compound 10 µM
[25] = second compound 3.16 µM, first compound 0.0316 µM
[26] = second compound 3.16 µM, first compound 0.1 µM
[27] = second compound 3.16 µM, first compound 0.316 µM
[28] = second compound 3.16 µM, first compound 1 µM
[29] = second compound 3.16 µM, first compound 3.16 µM
[30] = second compound 3.16 µM, first compound 10 µM
[31] = second compound 10 µM, first compound 0.0316 µM
[32] = second compound 10 µM, first compound 0.1 µM
[33] = second compound 10 µM, first compound 0.316 µM
[34] = second compound 10 µM, first compound 1 µM
[35] = second compound 10 µM, first compound 3.16 µM
[36] = second compound 10 µM, first compound 10 µM
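Note: spheroids exposed to compounds for 7 days.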

**Q.** For `CCCS(=O)(=O)Nc1ccc(F)c(C(=O)c2c[nH]c3ncc(-c4ccc(Cl)cc4)cc23)c1F` + Nc1ccc(C#CCN(C(=O)Cc2ncc(C(F)(F)F)cc2C(F)(F)F)c2ccc(F)cc2)nn1, which IC50 (second compound 0.0316 µM) is on record?
**A.** > 10 µM

**Q.** What about the IC50 (second compound 0.1 µM) of the same compound?
**A.** > 10 µM

**Q.** And the IC50 (second compound 0.316 µM)?
**A.** > 10 µM

**Q.** And the IC50 (second compound 1 µM)?
**A.** > 10 µM

**Q.** What about the IC50 (second compound 3.16 µM) of the same compound?
**A.** > 10 µM

**Q.** What about the IC50 (second compound 10 µM) of the same compound?
**A.** > 10 µM

**Q.** And the viability, T/C [1]?
**A.** 93.2%

**Q.** And the viability, T/C [2]?
**A.** 95.2%

**Q.** And the viability, T/C [3]?
**A.** 115%

**Q.** And the viability, T/C [4]?
**A.** 128%

**Q.** What about the viability, T/C [5] of the same compound?
**A.** 147%

**Q.** What about the viability, T/C [6] of the same compound?
**A.** 97.6%

**Q.** What about the viability, T/C [7] of the same compound?
**A.** 105%

**Q.** And the viability, T/C [8]?
**A.** 107%

**Q.** What about the viability, T/C [9] of the same compound?
**A.** 109%

**Q.** What about the viability, T/C [10] of the same compound?
**A.** 137%

**Q.** What about the viability, T/C [11] of the same compound?
**A.** 153%

**Q.** And the viability, T/C [12]?
**A.** 97.5%

**Q.** What about the viability, T/C [13] of the same compound?
**A.** 99.4%

**Q.** And the viability, T/C [14]?
**A.** 110%

**Q.** And the viability, T/C [15]?
**A.** 118%

**Q.** And the viability, T/C [16]?
**A.** 134%

**Q.** What about the viability, T/C [17] of the same compound?
**A.** 147%

**Q.** What about the viability, T/C [18] of the same compound?
**A.** 94.1%

**Q.** What about the viability, T/C [19] of the same compound?
**A.** 95.6%

**Q.** And the viability, T/C [20]?
**A.** 101%

**Q.** And the viability, T/C [21]?
**A.** 116%

**Q.** What about the viability, T/C [22] of the same compound?
**A.** 132%

**Q.** And the viability, T/C [23]?
**A.** 148%

**Q.** What about the viability, T/C [24] of the same compound?
**A.** 95%

**Q.** And the viability, T/C [25]?
**A.** 90.8%

**Q.** What about the viability, T/C [26] of the same compound?
**A.** 103%

**Q.** What about the viability, T/C [27] of the same compound?
**A.** 109%

**Q.** And the viability, T/C [28]?
**A.** 144%

**Q.** What about the viability, T/C [29] of the same compound?
**A.** 146%

**Q.** And the viability, T/C [30]?
**A.** 85%

**Q.** And the viability, T/C [31]?
**A.** 96.8%

**Q.** And the viability, T/C [32]?
**A.** 109%

**Q.** What about the viability, T/C [33] of the same compound?
**A.** 133%

**Q.** What about the viability, T/C [34] of the same compound?
**A.** 137%

**Q.** And the viability, T/C [35]?
**A.** 135%

**Q.** What about the viability, T/C [36] of the same compound?
**A.** 94.5%

**Q.** With `COc1ccc([C@@H](O)c2cc(-c3ncnc4cc(N5CCOCC5)ccc34)c(F)cc2Cl)nn1` + Nc1ccc(C#CCN(C(=O)Cc2ncc(C(F)(F)F)cc2C(F)(F)F)c2ccc(F)cc2)nn1 as the compound, how does the IC50 (second compound 0.0316 µM) read?
**A.** 3.7 µM

**Q.** And the IC50 (second compound 0.1 µM)?
**A.** 3.83 µM

**Q.** What about the IC50 (second compound 0.316 µM) of the same compound?
**A.** 4.24 µM

**Q.** And the IC50 (second compound 1 µM)?
**A.** 4.29 µM

**Q.** And the IC50 (second compound 3.16 µM)?
**A.** 3.94 µM

**Q.** What about the IC50 (second compound 10 µM) of the same compound?
**A.** 4.85 µM

**Q.** What about the viability, T/C [1] of the same compound?
**A.** 83.2%

**Q.** And the viability, T/C [2]?
**A.** 105%

**Q.** What about the viability, T/C [3] of the same compound?
**A.** 73.6%

**Q.** And the viability, T/C [4]?
**A.** 74.9%

**Q.** What about the viability, T/C [5] of the same compound?
**A.** 52.3%

**Q.** And the viability, T/C [6]?
**A.** 33.1%

**Q.** And the viability, T/C [7]?
**A.** 100%

**Q.** What about the viability, T/C [8] of the same compound?
**A.** 89.6%

**Q.** And the viability, T/C [9]?
**A.** 84.4%

**Q.** What about the viability, T/C [10] of the same compound?
**A.** 75.1%

**Q.** And the viability, T/C [11]?
**A.** 51%

**Q.** What about the viability, T/C [12] of the same compound?
**A.** 32.9%

**Q.** What about the viability, T/C [13] of the same compound?
**A.** 98.7%

**Q.** What about the viability, T/C [14] of the same compound?
**A.** 103%

**Q.** And the viability, T/C [15]?
**A.** 86%

**Q.** And the viability, T/C [16]?
**A.** 73%

**Q.** And the viability, T/C [17]?
**A.** 57.5%

**Q.** And the viability, T/C [18]?
**A.** 32.8%

**Q.** And the viability, T/C [19]?
**A.** 92.8%

**Q.** And the viability, T/C [20]?
**A.** 86.3%

**Q.** What about the viability, T/C [21] of the same compound?
**A.** 81.5%

**Q.** And the viability, T/C [22]?
**A.** 69.5%

**Q.** What about the viability, T/C [23] of the same compound?
**A.** 57.5%

**Q.** And the viability, T/C [24]?
**A.** 33.3%

**Q.** What about the viability, T/C [25] of the same compound?
**A.** 91.5%

**Q.** What about the viability, T/C [26] of the same compound?
**A.** 93.9%

**Q.** What about the viability, T/C [27] of the same compound?
**A.** 82.9%

**Q.** What about the viability, T/C [28] of the same compound?
**A.** 67.8%

**Q.** What about the viability, T/C [29] of the same compound?
**A.** 56%

**Q.** What about the viability, T/C [30] of the same compound?
**A.** 33.5%

**Q.** What about the viability, T/C [31] of the same compound?
**A.** 96.7%

**Q.** And the viability, T/C [32]?
**A.** 89.4%

**Q.** What about the viability, T/C [33] of the same compound?
**A.** 87.4%

**Q.** What about the viability, T/C [34] of the same compound?
**A.** 70.6%

**Q.** What about the viability, T/C [35] of the same compound?
**A.** 59.1%

**Q.** And the viability, T/C [36]?
**A.** 36.6%

**Q.** What does the source list for `Cn1ncnc1[C@H]1c2n[nH]c(=O)c3cc(F)cc(c23)N[C@@H]1c1ccc(F)cc1` + Nc1ccc(C#CCN(C(=O)Cc2ncc(C(F)(F)F)cc2C(F)(F)F)c2ccc(F)cc2)nn1?
**A.** IC50 (second compound 0.0316 µM): > 0.1 µM; IC50 (second compound 0.1 µM): > 0.1 µM; IC50 (second compound 0.316 µM): > 0.1 µM; IC50 (second compound 1 µM): > 0.1 µM; IC50 (second compound 3.16 µM): > 0.1 µM; IC50 (second compound 10 µM): > 0.1 µM; viability, T/C (second compound 0.0316 µM, first compound 0.000316 µM): 95.1%; viability, T/C (second compound 0.0316 µM, first compound 0.001 µM): 86.4%; viability, T/C (second compound 0.0316 µM, first compound 0.00316 µM): 90.3%; viability, T/C (second compound 0.0316 µM, first compound 0.01 µM): 90.7%; viability, T/C [1]: 88.1%; viability, T/C [2]: 86.8%; viability, T/C (second compound 0.1 µM, first compound 0.000316 µM): 104%; viability, T/C (second compound 0.1 µM, first compound 0.001 µM): 86.5%; viability, T/C (second compound 0.1 µM, first compound 0.00316 µM): 90.1%; viability, T/C (second compound 0.1 µM, first compound 0.01 µM): 88.1%; viability, T/C [7]: 93.1%; viability, T/C [8]: 80.4%; viability, T/C (second compound 0.316 µM, first compound 0.000316 µM): 99.9%; viability, T/C (second compound 0.316 µM, first compound 0.001 µM): 94.1%; viability, T/C (second compound 0.316 µM, first compound 0.00316 µM): 89.8%; viability, T/C (second compound 0.316 µM, first compound 0.01 µM): 84.8%; viability, T/C [13]: 87.4%; viability, T/C [14]: 75.7%; viability, T/C (second compound 1 µM, first compound 0.000316 µM): 99.2%; viability, T/C (second compound 1 µM, first compound 0.001 µM): 88%; viability, T/C (second compound 1 µM, first compound 0.00316 µM): 89.5%; viability, T/C (second compound 1 µM, first compound 0.01 µM): 95%; viability, T/C [19]: 92.2%; viability, T/C [20]: 81.7%; viability, T/C (second compound 3.16 µM, first compound 0.000316 µM): 97.8%; viability, T/C (second compound 3.16 µM, first compound 0.001 µM): 88%; viability, T/C (second compound 3.16 µM, first compound 0.00316 µM): 90%; viability, T/C (second compound 3.16 µM, first compound 0.01 µM): 87%; viability, T/C [25]: 83.9%; viability, T/C [26]: 83.7%; viability, T/C (second compound 10 µM, first compound 0.000316 µM): 105%; viability, T/C (second compound 10 µM, first compound 0.001 µM): 92.1%; viability, T/C (second compound 10 µM, first compound 0.00316 µM): 96.1%; viability, T/C (second compound 10 µM, first compound 0.01 µM): 92.2%; viability, T/C [31]: 92.4%; viability, T/C [32]: 84%
